In patent US10959966B2, “Compositions and methods for modulating HEXM1 expression” (CASE WESTERN RESERVE UNIVERSITY, priority 2014, dated 2021):

Experiments:
[1] = system: HEXIM1 expression in LNCaP prostate cancer cells; assay: HEXIM1 expression by western blot in LNCaP cells treated with HMBA analogs; assay type: cell-based; conditions: LNCaP cells, 24 h, western blot normalized to β-actin; for HEXIM1 expression induction at lower concentration: analogs at 100 μM; for HEXIM1 expression compared to the vehicle treatment (cutoff 2.5 fold): analogs at 500 μM
Method: (§1) FIGS. 2(A-B) illustrate Western blots and a graph showing the effect of HMBA analogs on HEXIM1 expression. LNCaP cells were treated with vehicle, HMBA (5 mM) and its analogs at 500 μM for 24 h. Level of HEXIM1 (upper panel) and β-actin (lower panel) was analyzed by Western blot of cell extracts with HEXIM1 antibody and β-actin antibody respectively. The bands of HEXIM1 were quantified using ImageJ (NIH) and normalized to β-actin. The results are the representative of three independent experiments.
as §1, with “3(A-B)” for “2(A-B)”, “lower concentration” for “the effect”, “identified” for “its”, “100” for “500”
FIGS. 4(A-B) illustrate Western blots and a graph showing dose-dependent study of compound 4a1 and HMBA on HEXIM1 expression. Level of HEXIM1 (upper panel) and β-actin (lower panel) was analyzed by Western blot of cell extracts with HEXIM1 antibody and β-actin antibody respectively.
HMBA analogs described herein can be synthesized based on the HMBA scaffold and then selected for their ability to induce HEXIM1 expression in an in vitro cell assay. For example, the synthesized HMBA analogs can be administered to cells, such as LNCaP prostate cancer cells, and the level of HEXIM1 in such cells can be measured using western blot analyses. The level of HEXIM1 expression of cells that are treated with a potential HMBA analog can be compared to control cells treated without the HMBA analog or with HMBA. Control cells (untreated or treated with HMBA) can be assigned a relative HEXIM1 expression value. Induction or promotion of HEXIM1 expression is achieved when the HEXIM1 expression relative to the control is increased at least about 1%, 5%, 10%, 15%, 20%, 30%, 50%, 75%, 100%, 200%, or more.
The synthesis of the symmetrical and unsymmetrical derivatives is described in Scheme 1 and 2, respectively. For the symmetrical analogs, moieties A and C were kept identical. Besides the acetyl group of HMBA, methanesulfonyl group, propionyl group or butyryl group were introduced. In addition, a bulky benzoyl group was introduced. The active proton in the amide moiety was replaced with methyl group to generate a series of analogs with lower solubility. For the moiety B, various linkers such as 1,3-propylene, […] 1,4-cyclohexylene, 1,4-phenylene-bis(methylene), 1,4-cyclohexylene-bis(methylene) were tested for optimization. For the unsymmetrical analogs, the A and B moieties were kept the same as HMBA while the C moiety was modified with aryl or alkyl amide. A total of 32 compounds were synthesized, and these compounds were examined for their potency to induce HEXIM1 in LNCaP prostate cancer cells. HMBA (5 mM) was used as a positive control.
(§2) Therefore, these three compounds were screened at lower concentrations.

[2] = system: LNCaP cells; assay: Cell morphology after treatment, to exclude compounds causing cell toxicity; conditions: 500 μM
From the text: Cell morphology was examined after the treatment to exclude compounds that caused cell toxicity.

[3] = Precipitation of compounds in cell culture; assay type: physicochemical; conditions: 500 μM
Method: as §2
Some compounds were further evaluated at a lower concentration of 100 μM (FIG. 3). […] The variation in potency could be due to the precipitation of the two compounds at 500 μM, which hampers cell penetration. […] Due to the unsymmetrical structural characteristic of 4a1, a dose-dependent study was performed and the results are presented in FIG. 4.

SMILES	HEXIM1 expression induction at lower concentration [1]	HEXIM1 expression compared to the vehicle treatment (cutoff 2.5 fold) [1]	Cell morphology after the treatment [2]	Precipitation during the treatment [3]
CCC(=O)NCCCCCCNC(=O)CC [Compound 2a4]	reduced activity	–	–	–
CCCC(=O)NCCCCCCNC(=O)CCC [Compound 2a5]	reduced activity	–	–	–
CC(=O)NCC1CCC(CNC(C)=O)CC1 (stereo not shown) [Compound 2c1]	–	reached this cutoff	cell morphology slightly changed	–
CC(=O)NC1CCC(NC(C)=O)CC1 (stereo not shown) [Compound 2d1]	not able to induce HEXIM1 expression	–	–	–
CS(=O)(=O)NCCCNS(C)(=O)=O [Compound 2f2]	not able to induce HEXIM1 expression	–	–	–
CN(CCCCCCN(C)S(C)(=O)=O)S(C)(=O)=O [Compound 3a2]	significant activity	did not reach the cutoff	–	precipitation
CC(=O)N(C)Cc1ccc(CN(C)C(C)=O)cc1 [Compound 3b1]	3.8 fold	–	–	–
CN(Cc1ccc(CN(C)S(C)(=O)=O)cc1)S(C)(=O)=O [Compound 3b2]	2 fold	–	–	–
CN(CC1CCC(CN(C)S(C)(=O)=O)CC1)S(C)(=O)=O (stereo not shown) [Compound 3c2]	not able to induce HEXIM1 expression	–	–	–
CC(=O)N(C)C1CCC(N(C)C(C)=O)CC1 (stereo not shown) [Compound 3d1]	not able to induce HEXIM1 expression	–	–	–
CN(C1CCC(N(C)S(C)(=O)=O)CC1)S(C)(=O)=O (stereo not shown) [Compound 3d2]	significant activity	did not reach the cutoff	–	precipitation
CN(CCCN(C)S(C)(=O)=O)S(C)(=O)=O [Compound 3f2]	not able to induce HEXIM1 expression	did not reach the cutoff	–	precipitation
COc1ccc(C(=O)NCCCCCCNC(C)=O)cc1 [Compound 4a3]	–	reached this cutoff	–	–
CC(=O)NCCCCCCNC(=O)c1ccc(-c2ccccc2)cc1 [Compound 4a4]	not able to induce HEXIM1 expression	did not reach the cutoff	–	–
